From patent US20040248762A1, “Malodor counteractant compositions” (priority 2003, published 2004)
Where “and” joins values, the source holds several entries; their conditions need not be identical. Equal values may be shown once.

Columns and labels:
[1] = MOC of sweat malodor on fabric swatches; design: species or system human; details: summary of Table 6
Experimental: The following fabric treatment solutions were prepared:
1. A solution of ethanol and Cremophor (a hydrogenated ethoxylated castor oil marketed by BASF Corp., Mount Olive, N.J.) containing 10% (wt) of dihexyl fumerate (DHF).
2. A solution of ethanol and Cremophor containing 10% (wt) of OMC.
3. A solution of ethanol and Cremophor containing 5% (wt) of DHF+5% (wt) OMC.
Five (5) fabric swatches were prepared, and labeled A-E. Swatch A was designated as the control swatch with no malodor. 100 μl of sweat malodor was placed in the middle of swatches B-E. Swatch B was designated as the control swatch for the malodor. The swatches were allowed to equilibrate with the malodor for 20 minutes. Onto swatches C-E, the following solutions were sprayed:
The malodor intensity on the cotton swatches was evaluated as follows:
The malodor intensity on swatch B (Malodor Control) was identified as a 5 (overpoweringly strong) on the scale of 1-5 set forth below at every time point, and the rest of swatches were evaluated based on that standard.

[2] = Synthetic axilla malodor on cotton pads, panel rating of malodor strength; design: species or system human; details: scale 5 overpowering to 1 not detectable; for 5% OMC + 5% Compound B (axilla malodor panel score): mixture 5% OMC + 5% Compound B
Experimental: 100 μl of synthetic axilla malodor was placed onto cotton pads. 0.4 g of an ethanolic solution containing 10% (wt) of a test compound identified in Table 1 was placed on each axilla malodor treated cotton pad. Each pad was allowed to dry 15 for minutes, and then evaluated using a 10-member panel after 3 hours. The test cotton pads were randomized, and each panelist was asked to check a box that represented the strength of the axilla malodor using the following scale:
In this example, the MOC effect of various mixtures of a Class A MOC compound and a Class B MOC compound (i.e., dihexyl fumerate as disclosed in Kulka, U.S. Pat. No. 3,074,892) were evaluated using the same test and malodor evaluation procedures as set forth in Example 1. Each test solution contained 5% (wt) DHF and 5% (wt) of the Class A compound identified in Table 3. The MOC effect was evaluated as in Example 1.
Various mixtures of OMC (a Class A Compound) and a Class B compound (i.e., various cyclohexyl esters as disclosed in Schleppnik '221) as identified in Table 4 below were made according to the procedure set forth in Example 1. The MOC of each mixture was evaluated using the procedure set forth in Example 1.

Row | SMILES | MOC effect on sweat malodor on fabric (in words) [1] | 10% test (Compound B Alone) (axilla malodor panel score) ([2]; 10% Compound B alone, procedure of Example 1) | 5% OMC + 5% Compound B (axilla malodor panel score) ([2]; procedure of Example 1) | 10% OMC (Alone) (axilla malodor panel score) ([2]; 10% OMC alone, run beside the Compound B of that table line)
1 | CCCCCCOC(=O)/C=C/C(=O)OCCCCCC [Dihexyl Fumerate, reference compound] | had a MOC effect | 2.6 | 2.3 | –
2 | CCCCC(CC)COC(=O)/C=C/c1ccc(OC)cc1 (stereo not drawn) [OMC, Octyl methoxy cinnamate] | had a MOC effect | – | acts at least additively | 3.1 and 2.6 and 3.2
